The structures appear in SMILES notation.

As a reminder, the EC50 is the concentration giving half of the maximal effect. By half-life is commonly meant the time in which the quantity being followed falls by half. A higher half-life goes with slow decline. The term CC50 denotes the concentration at which the toxic effect on the cells reaches its halfway point. A low value points to harm at low concentration.

The test system of data set [1] is SARS-CoV2-NLuc. As to the kind of experiment: microbe, parasite or virus in culture. In kind it is cell-based, SARS Coronavirus 2. As to conditions: Severe acute respiratory syndrome coronavirus 2, 48 h, read-out: SARS-CoV2 EC50 (nM).
Data set [2] can be described thus: in vitro. The conditions noted are these: human, plasma.
Data set [3] in a line: in vitro. In kind it is in vitro ADME. As to conditions: human, s9, pH 7.4. The protocol: Example D: GI S9 Stability […] The S9 metabolic reactions were initiated by the addition of the substrates to the S9 reaction mixture to a final concentration of 2 μM. […] Aliquots ([…]) of the diluted supernatant were analyzed on a Thermo Q-Exactive mass spectrometer as described below. Example F: Liquid Chromatography/Mass Spectroscopy Methods for S9 and Plasma Stability Quantification of test compounds, Reference Compound A (S9 stability assay nucleoside metabolite), and controls was performed by analyte/internal standard peak area ratio (PAR) values measured on a Thermo Q-Exactive mass spectrometer coupled to a Dionex UltiMate 3000 HPLC with a Leap Technologies HTC PAL autosampler. […] Mobile phase A consisted of 0.1% (v/v) formic acid in water. Mobile phase B consisted of 0.1% (v/v) formic acid in acetonitrile. Elution of analytes was achieved by a series of linear gradients of acetonitrile in water containing 0.10% (v/v) formic acid. The mass spectrometer was calibrated on a weekly basis and mass tolerance of 5 ppm was used.

Data set [4] deals with RSV-Luc5. As to the kind of experiment: microbe, parasite or virus in culture. Type of data set: cell-based. The conditions noted are these: human respiratory syncytial virus, NHBE, 72 h, read-out: RSV NHBE EC50 (nM).
A short description of data set [5]: in vitro. The conditions noted are these: human. Type of data set: cell-based. As to the method:
Example C: CC50 MT4 Cytotoxicity of the compounds was determined in uninfected cells using the cell viability reagent in a similar fashion as described before for other cell types ([…] et al., Antimicrob Agents Chemother. 2008,52(2):655-65). […] Cells were cultured for 4-5 days at 37° C. Following the incubation, the cells were allowed to equilibrate to 25° C., and cell viability was determined by adding Cell-Titer Glo viability reagent. The mixture was incubated for 10 min, and the luminescence signal was quantified using an Envision plate reader. Untreated cell and cells treated at 2 μM puromycin (Sigma, St. Louis, MO) serve as 100% and 0% cell viability control, respectively. The percent of cell viability was calculated for each tested compound concentration relative to the 0% and 100% controls and the CC50 value was determined by non-linear regression as a compound concentration reducing the cell viability by 50%.

The subject of data set [6] is Caco-2 cells (clone C2BBe1). As to conditions: human, Caco-2.

Regarding `CC1(C)CC(=O)O[C@H]2[C@@H](OC(=O)C1)[C@](C#N)(c1ccc3c(N)ncnn13)O[C@@H]2COC(=O)OC1CCCC1` [Compound C37, ((7aR,8R,10R,10aR)-10-(4-aminopyrrolo[2,1-f][1,2,4]triazin-7-yl)-10-cyano-4,4-dimethyl-2,6-dioxooctahydro-2H-furo[3,4-b][1,4]dioxonin-8-yl)methyl cyclopentyl carbonate], the half-maximal effective concentration (EC50) in data set [1] and in data set [4] was over 50000 nM in each case. Further, the half-life at 2 μM in data set [2] was 300 min; in data set [3], 5.15 min. In data set [5], this compound yielded a 50% cytotoxic concentration (CC50) of over 50 µM.
In the case of `CC(C)COC(=O)OC[C@H]1O[C@@](C#N)(c2ccc3c(N)ncnn23)[C@@H]2OC(=O)CCCC(=O)O[C@@H]21` [Compound C18, ((7aR,8R,10R,10aR)-10-(4-aminopyrrolo[2,1-f][1,2,4]triazin-7-yl)-10-cyano-2,6-dioxooctahydro-2H-furo[3,4-b][1,4]dioxonin-8-yl)methyl isobutyl carbonate], the EC50 was determined as 1780 nM in data set [1] and 8490 nM in data set [4]. Further, the values for the half-life at 2 μM in data set [2] and in data set [3] were 7.57 min and 0.724 min, respectively. The same compound showed a CC50 in data set [5] of over 50 µM.
In the same order, the values of `CC(C)(C)COC(=O)OC[C@H]1O[C@@](C#N)(c2ccc3c(N)ncnn23)[C@@H]2OC(=O)CCCC(=O)O[C@@H]21` [Compound C29, ((7aR,8R,10R,10aR)-10-(4-aminopyrrolo[2,1-f][1,2,4]triazin-7-yl)-10-cyano-2,6-dioxooctahydro-2H-furo[3,4-b][1,4]dioxonin-8-yl)methyl neopentyl carbonate] are 2220 nM, 4660 nM, 12.1 min, 0.587 min and over 50 µM.
In the same order, the values of `CC1(C)CC(=O)O[C@H]2[C@@H](OC(=O)C1)[C@](C#N)(c1ccc3c(N)ncnn13)O[C@@H]2CO` [Compound C11, (7aR,8R,10R,10aR)-8-(4-aminopyrrolo[2,1-f][1,2,4]triazin-7-yl)-10-(hydroxymethyl)-4,4-dimethyl-2,6-dioxooctahydro-2H-furo[3,4-b][1,4]dioxonine-8-carbonitrile] are over 50000 nM, over 50000 nM, 414 min, 24.3 min and over 50 µM.
As for `CCOC(=O)[C@@H]1[C@H](OC(=O)OC[C@H]2O[C@@](C#N)(c3ccc4c(N)ncnn34)[C@@H]3OC(=O)CC(C)(C)CC(=O)O[C@@H]32)CCN1C` [Compound C49, ethyl (2S,3R)-3-(((((7aR,8R,10R,10aR)-10-(4-aminopyrrolo[2,1-f][1,2,4]triazin-7-yl)-10-cyano-4,4-dimethyl-2,6-dioxooctahydro-2H-furo[3,4-b][1,4]dioxonin-8-yl)methoxy)carbonyl)oxy)-1-methylpyrrolidine-2-carboxylate], the EC50 in data set [1] and in data set [4] was over 50000 nM each time. In addition, the half-life at 2 μM in data set [2] worked out at 42.5 min; in data set [3] it was 7.81 min. In data set [5], this compound gave a CC50 of over 50 µM.
For the compound `CC(C)[C@H](N)C(=O)OC[C@H]1O[C@@](C#N)(c2ccc3c(N)ncnn23)[C@@H]2OC(=O)CCCC(=O)O[C@@H]21` [Compound C59, ((7aR,8R,10R,10aR)-10-(4-aminopyrrolo[2,1-f][1,2,4]triazin-7-yl)-10-cyano-2,6-dioxooctahydro-2H-furo[3,4-b][1,4]dioxonin-8-yl)methyl L-valinate], the EC50 in data set [1] was 6830 nM; in data set [4] it was 5970 nM. For the same compound, the half-life at 2 μM in data set [2] amounted to 18.5 min; in data set [3] it was 0.586 min. In data set [5], this compound returned a 50% cytotoxic concentration (CC50) of over 50 µM.
In the same order, the values of `CCOC(=O)C(C)(C)OC(=O)OC[C@H]1O[C@@](C#N)(c2ccc3c(N)ncnn23)[C@@H]2OC(=O)CCCC(=O)O[C@@H]21` [Compound C26, ethyl 2-(((((7aR,8R,10R,10aR)-10-(4-aminopyrrolo[2,1-f][1,2,4]triazin-7-yl)-10-cyano-2,6-dioxooctahydro-2H-furo[3,4-b][1,4]dioxonin-8-yl)methoxy)carbonyl)oxy)-2-methylpropanoate] are 39900 nM, over 50000 nM, 18.3 min, 0.618 min and over 50 µM.
For the compound `CC(C)(OC(=O)OC[C@H]1O[C@@](C#N)(c2ccc3c(N)ncnn23)[C@@H]2OC(=O)CCCC(=O)O[C@@H]21)C(F)F` [Compound C25, ((7aR,8R,10R,10aR)-10-(4-aminopyrrolo[2,1-f][1,2,4]triazin-7-yl)-10-cyano-2,6-dioxooctahydro-2H-furo[3,4-b][1,4]dioxonin-8-yl)methyl (1,1-difluoro-2-methylpropan-2-yl) carbonate], the figures for the concentration giving a half-maximal response (EC50) in data set [1] and in data set [4] were 34300 nM and 6460 nM, respectively. The half-life at 2 μM in data set [2] was 11.9 min; in data set [3], 0.559 min. The same compound registered a CC50 in data set [5] of over 50 µM.
Take `CC1(C)CC(=O)O[C@H]2[C@@H](OC(=O)C1)[C@](C#N)(c1ccc3c(N)ncnn13)O[C@@H]2COC(=O)OC(CF)CF` [Compound C44, ((7aR,8R,10R,10aR)-10-(4-aminopyrrolo[2,1-f][1,2,4]triazin-7-yl)-10-cyano-4,4-dimethyl-2,6-dioxooctahydro-2H-furo[3,4-b][1,4]dioxonin-8-yl)methyl (1,3-difluoropropan-2-yl) carbonate]: the EC50 in data set [1] and in data set [4] was over 50000 nM throughout. In addition, the half-life at 2 μM in data set [2] turned out to be 133 min; in data set [3], 1.22 min. Also, the cytotoxic concentration (CC50) in data set [5] was over 50 µM.
Regarding `CCOC(=O)[C@@H]1[C@H](OC(=O)OC[C@H]2O[C@@](C#N)(c3ccc4c(N)ncnn34)[C@@H]3OC(=O)CCCC(=O)O[C@@H]32)CCN1C` [Compound C32, ethyl (2S,3R)-3-(((((7aR,8R,10R,10aR)-10-(4-aminopyrrolo[2,1-f][1,2,4]triazin-7-yl)-10-cyano-2,6-dioxooctahydro-2H-furo[3,4-b][1,4]dioxonin-8-yl)methoxy)carbonyl)oxy)-1-methylpyrrolidine-2-carboxylate], the EC50 in data set [1] turned out to be 4970 nM; in data set [4], 7650 nM. The half-life at 2 μM in data set [2] was found to be 30.9 min; in data set [3] it was 0.566 min. In addition, in data set [5], the CC50 is over 50 µM.
With `CCOC(=O)C(C)(C)OC(=O)OC[C@H]1O[C@@](C#N)(c2ccc3c(N)ncnn23)[C@@H]2OC(=O)CC(C)(C)CC(=O)O[C@@H]21` [Compound C43, ethyl 2-(((((7aR,8R,10R,10aR)-10-(4-aminopyrrolo[2,1-f][1,2,4]triazin-7-yl)-10-cyano-4,4-dimethyl-2,6-dioxooctahydro-2H-furo[3,4-b][1,4]dioxonin-8-yl)methoxy)carbonyl)oxy)-2-methylpropanoate], the EC50 in data set [1] and in data set [4] was over 50000 nM throughout. The half-life at 2 μM in data set [3] is 19.7 min. For the same compound, the “Caco2 A to B” value in data set [6] amounted to 2.93. For the same compound, the “Caco2 B to A” value in data set [6] is listed as 11.62. Also, in data set [5], the CC50 was over 50 µM.
With `COC(=O)OC[C@H]1O[C@@](C#N)(c2ccc3c(N)ncnn23)[C@@H]2OC(=O)CC(C)(C)CC(=O)O[C@@H]21` [Compound C15, ((7aR,8R,10R,10aR)-10-(4-aminopyrrolo[2,1-f][1,2,4]triazin-7-yl)-10-cyano-4,4-dimethyl-2,6-dioxooctahydro-2H-furo[3,4-b][1,4]dioxonin-8-yl)methyl methyl carbonate], the 50% effective concentration (EC50) in data set [1] and in data set [4] was over 50000 nM each time. The half-life at 2 μM in data set [2] was 16.1 min; in data set [3] it was 6.22 min. The compound also displayed a CC50 in data set [5] of over 50 µM.
In the case of `N#C[C@@]1(c2ccc3c(N)ncnn23)O[C@H](COC(=O)C2CCC2)[C@H]2OC(=O)CCCC(=O)O[C@H]21` [Compound C57, ((7aR,8R,10R,10aR)-10-(4-aminopyrrolo[2,1-f][1,2,4]triazin-7-yl)-10-cyano-2,6-dioxooctahydro-2H-furo[3,4-b][1,4]dioxonin-8-yl)methyl cyclobutanecarboxylate], the EC50 was 3000 nM in data set [1] and 3780 nM in data set [4]. In data set [2], this compound gave a half-life at 2 μM of 7.33 min. The compound further gave a CC50 in data set [5] of over 50 µM.
